ChEMBL document CHEMBL5608184, “Discovery and mechanistic insights into thieno[3,2-d]pyrimidine and heterocyclic fused pyrimidines inhibitors targeting tubulin for cancer therapy” (Eur J Med Chem, 2024)

What was measured:
A2780 = assay: Antiproliferative activity against human A2780 cells incubated for 48 hrs by CCK8 assay; format: functional, cell-based; conditions: A2780, 48 h
A549 = assay: cells; conditions: Homo sapiens, A549, 48 h
Description: Antiproliferative activity against human A549 cells incubated for 48 hrs by CCK8 assay

HCC827 = assay: Antiproliferative activity against human HCC827 cells incubated for 48 hrs by CCK8 assay; format: functional, cell-based; conditions: HCC827, 48 h
SK-OV-3 [1] = assay: Antiproliferative activity against human SK-OV-3 cells incubated for 48 hrs by CCK8 assay; format: functional, cell-based; conditions: SK-OV-3, 48 h
SK-OV-3 [2] = assay: Induction of cell cycle arrest at G2/M phase in human SK-OV-3 cells at 5 nM incubated for 24 hrs by PI staining based flow cytometry (reference value: 29.73 %); format: functional
SK-OV-3 [3] = assay: Induction of apoptosis in human SK-OV-3 cells assessed as early apoptotic cells at 5 nM incubated for 48 hrs by Annexin V-APC-A/7-AAD-A staining based flow cytometry (reference value: 1.10 %); format: functional
SK-OV-3 [4] = assay: Induction of apoptosis in human SK-OV-3 cells assessed as late apoptotic cells at 5 nM incubated for 48 hrs by Annexin V-APC-A/7-AAD-A staining based flow cytometry (reference value: 1.20 %); format: functional
SK-OV-3 [5] = assay: Induction of apoptosis in human SK-OV-3 cells assessed as viable cells at 5 nM incubated for 48 hrs by Annexin V-APC-A/7-AAD-A staining based flow cytometry (reference value: 97.17 %); format: functional; conditions: read-out: Activity
SK-OV-3 [6] = assay: Induction of cell cycle arrest at G2/M phase in human SK-OV-3 cells at 5 nM incubated for 24 hrs by PI staining based flow cytometry (reference value: 30.13 %); format: functional
SK-OV-3 [7] = assay: Induction of apoptosis in human SK-OV-3 cells assessed as late apoptotic cells at 5 nM incubated for 48 hrs by Annexin V-APC-A/7-AAD-A staining based flow cytometry (reference value: 1.22 %); format: functional
[8] = Antiproliferative activity against Paclitaxel-resistant human A2780 cells incubated for 48 hrs by CCK8 assay; format: functional, cell-based; conditions: Paclitaxel-resistant A2780, 48 h
SK-OV-3 [9] = assay: Induction of apoptosis in human SK-OV-3 cells assessed as necrotic cells at 5 nM incubated for 48 hrs by Annexin V-APC-A/7-AAD-A staining based flow cytometry (reference value: 0.48 %); format: functional
SK-OV-3 [10] = assay: Induction of apoptosis in human SK-OV-3 cells assessed as early apoptotic cells at 5 nM incubated for 48 hrs by Annexin V-APC-A/7-AAD-A staining based flow cytometry (reference value: 1.12 %); format: functional
SK-OV-3 [11] = assay: Induction of apoptosis in human SK-OV-3 cells assessed as necrotic cells at 5 nM incubated for 48 hrs by Annexin V-APC-A/7-AAD-A staining based flow cytometry (reference value: 0.21 %); format: functional
SK-OV-3 [12] = assay: Induction of apoptosis in human SK-OV-3 cells assessed as viable cells at 5 nM incubated for 48 hrs by Annexin V-APC-A/7-AAD-A staining based flow cytometry (reference value: 97.50 %); format: functional; conditions: read-out: Activity
Tubulin = assay: Binding affinity to CM5-chip immobilized tubulin (unknown origin) assessed as dissociation constant by SPR analysis; format: protein-complex assay, Homo sapiens

Row | Structure (SMILES) | IC50 (A2780) [nM] | IC50 (A549) [nM] | IC50 (HCC827) [nM] | IC50 (SK-OV-3 [1]) [nM] | other results
1 | CN(c1ccccc1)c1nc(Cl)nc2ccsc12 | > 1000 | > 1000 | > 1000 | > 1000 | 
2 | CCNc1nc(N(C)c2ccc(OC)cc2)c2sccc2n1 | 50.9 | 160 | 31.8 | 52.9 | 
3 | COc1ccc(N(C)c2nc(N)nc3ccsc23)cc1 | 61.1 | 207 | 21 | 34.9 | 
4 | COc1ccc(N(C)c2nc(NC3CCCCC3)nc3ccsc23)cc1 | > 1000 | > 1000 | > 1000 | > 1000 | 
5 | COc1ccc(Sc2nc(Cl)nc3ccsc23)cc1 | 31.1 | 78.1 | 29.4 | 38 | 
6 | COc1ccc2c(c1)CCCN2c1nc(Cl)nc2ccsc12 | 4.68 | 5.13 | 2.25 | 2.72 | 
7 | COc1ccc(N(C)c2nc(Cl)nc3c2ccn3C)cc1 | 73.4 | 120 | 54 | 23.2 | 
8 | COc1c(F)cc(N(C)c2nc(Cl)nc3ccsc23)cc1F | 119 | 238 | 52 | 31.6 | 
9 | CN(c1ccc2c(c1)OCO2)c1nc(Cl)nc2ccsc12 | 410 | 634 | 308 | 172 | 
10 | CN(c1ccc(OC(F)(F)F)cc1)c1nc(Cl)nc2ccsc12 | 393 | 601 | 346 | 101 | 
11 | Cc1nn(C)c2ccc(N(C)c3nc(Cl)nc4ccsc34)cc12 | 28 | 27.6 | 19.8 | 14.1 | 
12 | COc1cc(N(C)c2nc(Cl)nc3ccsc23)cc(OC)c1OC | > 1000 | > 1000 | > 1000 | > 1000 | 
13 | COc1ccc(N(C)c2nc(NC3CC3)nc3ccsc23)cc1 | 30.4 | 73.2 | 19.8 | 25.3 | 
14 | COc1ccc(Nc2nc(Cl)nc3ccsc23)cc1 | > 1000 | > 1000 | > 1000 | > 1000 | 
15 | COc1ccc(N(C)c2nc(N(C)C)nc3ccsc23)cc1 | 225 | 285 | 130 | 50.7 | 
16 | COc1ccc(N(C)c2nc(N3CCC3)nc3ccsc23)cc1 | 307 | 699 | 228 | 58.7 | 
17 | CN(c1ccc(C(F)F)cc1)c1nc(Cl)nc2ccsc12 | > 1000 | > 1000 | > 1000 | > 1000 | 
18 | COc1ccc(N(C)c2nc(NC3CCC3)nc3ccsc23)cc1 | 119 | 211 | 113 | 91.9 | 
19 | COc1ccc(N(C)c2nc(N3CCN(C)CC3)nc3ccsc23)cc1 | > 1000 | > 1000 | > 1000 | > 1000 | 
20 | COc1cc(OC)cc(N(C)c2nc(Cl)nc3ccsc23)c1 | 651 | 785 | 431 | 265 | 

Row | Structure (SMILES) | IC50 (A2780) [nM] | IC50 (A549) [nM] | IC50 (HCC827) [nM] | IC50 (SK-OV-3 [1]) [nM] | other results
21 | CN(c1ccc(C(F)(F)F)cc1)c1nc(Cl)nc2ccsc12 | > 1000 | > 1000 | > 1000 | > 1000 | 
22 | COc1ccc(N(C)c2nc(N3CCCC3)nc3ccsc23)cc1 | > 1000 | > 1000 | > 1000 | > 1000 | 
23 | COc1cc2c(c(OC)c1OC)-c1ccc(OC)c(=O)cc1[C@@H](NC(C)=O)CC2 [COLCHICINE] | 12.4 |  | 9.31 | 10.2 | Activity (SK-OV-3 [2]): 34.38%; Activity (SK-OV-3 [3]): 2.15%; Activity (SK-OV-3 [4]): 1.53%; viability at 0.005 µM (SK-OV-3 [5]): 96.2%; Activity (SK-OV-3 [6]): 34.8%; Activity (SK-OV-3 [7]): 2.01%; IC50 [8]: 500 nM; Activity (SK-OV-3 [9]): 0.28%; Activity (SK-OV-3 [10]): 1.47%; Activity (SK-OV-3 [11]): 0.38%; viability at 0.005 µM (SK-OV-3 [12]): 95.9%
24 | COc1ccc(N(C)c2nc(Cl)nc3ccoc23)cc1 | 6.28 | 9.05 | 4.64 | 2.86 | 
25 | COc1ccc(N(C)c2nc(NC3CCCC3)nc3ccsc23)cc1 | > 1000 | > 1000 | > 1000 | 741 | 
26 | COc1cccc(N(C)c2nc(Cl)nc3ccsc23)c1 | 225 | 388 | 140 | 46.9 | 
27 | CN(c1ccc2c(ccn2C)c1)c1nc(Cl)nc2ccsc12 | 1.56 | 1.72 | 1.56 | 1.22 | 
28 | COc1ccc(N(C)c2nc(Cl)nc3[nH]ccc23)cc1 | 225 | 588 | 225 | 39.2 | 
29 | COc1ccc(N(C)c2nc(Cl)nc3sccc23)cc1 | 5.44 | 6.32 | 5.16 | 4.95 | 
30 | COc1ccc(N(C)c2nc(Cl)nc3ccsc23)cc1F | 3.16 | 2.57 | 1.65 | 2.06 | 
31 | COc1ccc2c(c1)CCN2c1nc(Cl)nc2ccsc12 | > 1000 | > 1000 | > 1000 | > 1000 | 
32 | COc1ccc(N(C)c2nc(Cl)nc3cc[nH]c23)cc1 | 22.6 | 20.4 | 18.6 | 9.02 | 
33 | COc1ccc(/C=C\c2cc(OC)c(OC)c(OC)c2)cc1O [COMBRETASTATIN A4] | 2.15 | 2.57 | 2.25 | 1.42 | 
34 | COc1ccc(N(C)c2nc(Cl)nc3ccccc23)cc1 | 1.08 | 1.28 | 1.25 | 0.78 | 
35 | COc1ccc(N(C)c2ncnc3ccsc23)cc1 | 77.8 | 88.1 | 49.2 | 44.9 | 
36 | CN(c1ccc(F)cc1)c1nc(Cl)nc2ccsc12 | > 1000 | > 1000 | > 1000 | > 1000 | 
37 | COc1ccc(Oc2nc(Cl)nc3ccsc23)cc1 | > 1000 | > 1000 | > 1000 | > 1000 | 
38 | COc1ccc(N(C)c2nc(C)nc3ccsc23)cc1 | 15.7 | 14.8 | 9.02 | 6.22 | 
39 | COc1ccc(N(C)c2nc(Cl)nc3ccsc23)cc1 | 7.26 | 8.63 | 8.55 | 5.83 | Kd (Tubulin): 29700 nM
